{
  "source": "ChEMBL document CHEMBL5506055",
  "about": "“Hit-to-Lead Optimization of the Natural Product Oridonin as Novel NLRP3 Inflammasome Inhibitors with Potent Anti-Inflammation Activity” (J Med Chem, 2024)",
  "key": {"[1]": {"assay": "Clearance in ICR mouse at 1 mg/kg, iv measured upto 24 hrs by LC-MS/MS method", "type": "ADME, organism-based", "details": "in vivo"}, "[2]": {"assay": "AUC in ICR mouse at 10 mg/kg, po measured upto 24 hrs by LC-MS/MS method", "type": "ADME, organism-based", "details": "ICR, in vivo"}, "[3]": {"assay": "Stability in mouse liver microsomes assessed as half life preincubated for 5 mins with NADPH followed by compound addition and measured upto 120 mins by LC-MS/MS analysis", "type": "ADME, Microsome", "details": "time < 125 min"}, "[4]": {"target": "T1, NACHT, LRR and PYD domains-containing protein 3 (Mus musculus, UniProt Q8R4B8)", "T1 sequence (Q8R4B8 whole entry, the tested form may be a part)": "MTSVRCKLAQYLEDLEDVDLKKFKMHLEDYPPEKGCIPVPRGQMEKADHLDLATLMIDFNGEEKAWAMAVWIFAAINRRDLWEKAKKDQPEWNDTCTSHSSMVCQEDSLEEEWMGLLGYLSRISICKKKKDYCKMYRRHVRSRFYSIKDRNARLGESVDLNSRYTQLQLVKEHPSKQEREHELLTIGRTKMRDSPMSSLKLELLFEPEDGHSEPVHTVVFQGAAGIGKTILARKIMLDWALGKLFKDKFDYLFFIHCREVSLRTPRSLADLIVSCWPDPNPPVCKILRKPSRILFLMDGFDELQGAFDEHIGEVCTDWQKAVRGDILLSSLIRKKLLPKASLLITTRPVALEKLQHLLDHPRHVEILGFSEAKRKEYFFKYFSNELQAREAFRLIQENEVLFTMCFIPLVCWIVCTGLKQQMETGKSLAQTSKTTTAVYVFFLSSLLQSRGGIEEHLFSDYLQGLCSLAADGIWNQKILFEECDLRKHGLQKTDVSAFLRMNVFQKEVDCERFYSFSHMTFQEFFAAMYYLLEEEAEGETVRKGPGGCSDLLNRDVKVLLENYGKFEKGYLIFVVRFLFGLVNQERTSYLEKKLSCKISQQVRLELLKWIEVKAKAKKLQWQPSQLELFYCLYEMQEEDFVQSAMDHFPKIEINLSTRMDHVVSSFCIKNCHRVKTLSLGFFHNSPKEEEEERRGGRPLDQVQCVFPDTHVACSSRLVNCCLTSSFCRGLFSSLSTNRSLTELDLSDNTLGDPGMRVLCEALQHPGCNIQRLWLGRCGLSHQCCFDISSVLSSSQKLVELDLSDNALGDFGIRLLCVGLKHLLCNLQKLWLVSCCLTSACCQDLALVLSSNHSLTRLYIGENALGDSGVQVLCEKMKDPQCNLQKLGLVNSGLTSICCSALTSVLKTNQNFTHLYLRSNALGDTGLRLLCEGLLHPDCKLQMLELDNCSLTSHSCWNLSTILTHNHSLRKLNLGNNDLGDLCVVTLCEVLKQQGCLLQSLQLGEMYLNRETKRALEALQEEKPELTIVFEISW", "assay": "Inhibition of NLRP3 inflammasome activation in LPS/ATP-induced C57BL/6 mouse BMDMs assessed as reduction in IL-1beta secretion preincubated with LPS for 4 hrs followed by compound addition for 30 mins and further stimulated with ATP for 30 mins by ELISA", "type": "cell-based, BMDM"}, "[5]": {"assay": "Stability in human plasma assessed as half life measured upto 8 hrs", "type": "ADME, cell-free"}, "[6]": {"target": "Voltage-gated inwardly rectifying potassium channel KCNH2 (Homo sapiens, UniProt Q12809)", "sequence (Q12809 whole entry)": "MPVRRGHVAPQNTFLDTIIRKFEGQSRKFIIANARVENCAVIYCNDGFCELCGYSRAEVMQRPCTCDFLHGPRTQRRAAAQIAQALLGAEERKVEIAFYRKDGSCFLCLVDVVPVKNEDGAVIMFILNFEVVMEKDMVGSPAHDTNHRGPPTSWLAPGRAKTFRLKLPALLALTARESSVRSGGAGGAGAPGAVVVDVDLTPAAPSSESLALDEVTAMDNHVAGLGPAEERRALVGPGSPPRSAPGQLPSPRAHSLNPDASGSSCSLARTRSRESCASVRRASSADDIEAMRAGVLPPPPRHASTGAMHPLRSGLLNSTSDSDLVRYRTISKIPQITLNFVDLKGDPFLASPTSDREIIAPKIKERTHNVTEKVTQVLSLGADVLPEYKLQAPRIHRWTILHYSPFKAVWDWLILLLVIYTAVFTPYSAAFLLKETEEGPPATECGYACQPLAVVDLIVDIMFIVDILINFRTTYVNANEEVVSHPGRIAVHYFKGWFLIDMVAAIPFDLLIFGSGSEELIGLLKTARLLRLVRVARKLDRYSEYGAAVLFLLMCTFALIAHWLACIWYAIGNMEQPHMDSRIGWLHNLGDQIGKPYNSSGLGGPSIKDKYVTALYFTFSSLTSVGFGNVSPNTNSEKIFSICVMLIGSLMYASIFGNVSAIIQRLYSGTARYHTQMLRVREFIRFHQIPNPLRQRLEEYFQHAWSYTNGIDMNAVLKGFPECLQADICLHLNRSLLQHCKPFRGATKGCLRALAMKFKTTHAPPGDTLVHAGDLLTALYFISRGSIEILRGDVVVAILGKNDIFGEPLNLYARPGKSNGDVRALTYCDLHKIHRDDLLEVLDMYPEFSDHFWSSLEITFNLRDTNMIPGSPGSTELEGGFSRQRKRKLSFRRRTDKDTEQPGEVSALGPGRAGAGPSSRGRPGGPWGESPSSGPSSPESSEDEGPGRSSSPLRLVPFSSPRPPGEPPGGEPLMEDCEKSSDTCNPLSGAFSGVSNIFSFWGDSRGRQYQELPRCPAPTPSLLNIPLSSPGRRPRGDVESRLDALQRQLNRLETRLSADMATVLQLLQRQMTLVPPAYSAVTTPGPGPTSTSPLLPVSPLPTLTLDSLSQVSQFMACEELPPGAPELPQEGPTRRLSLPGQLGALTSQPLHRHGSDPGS", "assay": "Inhibition of human ERG expressed in CHO cells", "type": "toxicity, cell-based"}, "[7]": {"assay": "Cmax in ICR mouse at 10 mg/kg, po measured upto 24 hrs by LC-MS/MS method", "type": "ADME, organism-based", "details": "in vivo"}, "[8]": {"target": "NACHT, LRR and PYD domains-containing protein 3 (Mus musculus) (UniProt Q8R4B8)", "sequence (Q8R4B8 whole entry, the tested form may be a part)": "as the sequence (Q8R4B8 whole entry, the tested form may be a part) above", "assay": "Inhibition of NLRP3 inflammasome activation in LPS/ATP-induced C57BL/6 mouse BMDMs assessed as reduction in IL-1beta secretion at 200 nM preincubated with LPS for 4 hrs followed by compound addition for 30 mins and further stimulated with ATP for 30 mins by ELISA relative to control", "type": "cell-based", "details": "BMDM, time 1.0 hrs"}, "[9]": {"assay": "Stability in rat plasma assessed as half life measured upto 8 hrs", "type": "ADME, cell-free"}, "[10]": {"assay": "AUC in ICR mouse at 1 mg/kg, iv measured upto 24 hrs by LC-MS/MS method", "type": "ADME, organism-based", "details": "ICR, in vivo"}, "[11]": {"assay": "Stability in mouse plasma assessed as half life measured upto 8 hrs", "type": "ADME, cell-free"}, "[12]": {"assay": "Half-life in ICR mouse at 10 mg/kg, po measured upto 24 hrs by LC-MS/MS method", "type": "ADME, organism-based", "details": "in vivo"}, "[13]": {"target": "NACHT, LRR and PYD domains-containing protein 3 (Mus musculus) (UniProt Q8R4B8)", "assay": "Inhibition of NLRP3 inflammasome activation in LPS/ATP-induced C57BL/6 mouse BMDMs assessed as reduction in IL-1beta secretion at 100 nM preincubated with LPS for 4 hrs followed by compound addition for 30 mins and further stimulated with ATP for 30 mins by ELISA relative to control", "type": "cell-based", "details": "BMDM, time 1.0 hrs"}, "[14]": {"assay": "Oral bioavailability in ICR mouse at 10 mg/kg measured upto 24 hrs by LC-MS/MS method", "type": "ADME, organism-based", "details": "ICR, in vivo"}, "[15]": {"assay": "Stability in rat liver microsomes assessed as half life preincubated for 5 mins with NADPH followed by compound addition and measured upto 120 mins by LC-MS/MS analysis", "type": "ADME, Microsome", "details": "time < 125 min"}, "[16]": {"assay": "Stability in human liver microsomes assessed as half life preincubated for 5 mins with NADPH followed by compound addition and measured upto 120 mins by LC-MS/MS analysis", "type": "ADME, Microsome", "details": "time < 125 min"}, "[17]": {"target": "NACHT, LRR and PYD domains-containing protein 3 (Mus musculus) (UniProt Q8R4B8)", "assay": "Inhibition of NLRP3 inflammasome activation in LPS/ATP-induced C57BL/6 mouse BMDMs assessed as reduction in IL-1beta secretion at 500 nM preincubated with LPS for 4 hrs followed by compound addition for 30 mins and further stimulated with ATP for 30 mins by ELISA relative to control", "type": "cell-based", "details": "BMDM, time 1.0 hrs"}, "hERG (KCNH2)": {"target": "hERG (KCNH2) (Homo sapiens, UniProt Q12809)", "sequence (Q12809 whole entry)": "as the sequence (Q12809 whole entry) above", "assay": "Inhibition of human ERG expressed in CHO cells at 40 uM relative to control", "type": "toxicity, cell-based", "details": "CHO cells that express human ERG"}, "[18]": {"assay": "Half-life in ICR mouse at 1 mg/kg, iv measured upto 24 hrs by LC-MS/MS method", "type": "ADME, organism-based", "details": "in vivo"}, "[19]": {"target": "NACHT, LRR and PYD domains-containing protein 3 (Mus musculus) (UniProt Q8R4B8)", "details": "BMDM, dose 10.0 nM, time 1.0 hrs"}, "Mus musculus": {"tested_on": "Mus musculus", "assay": "Antiinflammatory activity in MSU-induced C57BL/6 mouse model of arthritis assessed as reduction in inflammatory cell infiltration at 12.5 mg/kg, iv measured after 24 hrs", "type": "functional, organism-based"}, "[20]": {"target": "T1, NACHT, LRR and PYD domains-containing protein 3", "assay": "Inhibition of NLRP3 inflammasome activation in mouse J774.A1 cells", "type": "cell-based"}, "[21]": {"assay": "Selectivity index, ratio of CC50 for cytotoxicity against C57BL/6 mouse BMDMs to IC50 for inhibition of NLRP3 inflammasome activation in C57BL/6 mouse BMDMs", "type": "toxicity", "details": "bone marrow-derived macrophages (BMDMs), read-out: Ratio CC50/IC50"}},
  "note": "Activity calls are given as the source filed them. No cut-off for these calls is given here.",
  "data": [
    {"smiles": "C=C1C(=O)[C@]23[C@H](O)[C@H]1CC[C@H]2[C@]12C=CCC(C)(C)[C@H]1[C@H](O)[C@@]3(OCc1cncs1)OC2", "values": [
      {"measurement": "clearance", "setting": "[1]", "value": 49.1, "unit": "mL/min/kg"},
      {"measurement": "AUC at 24 h", "setting": "[2]", "value": 10.8, "unit": "ng·h/mL"},
      {"measurement": "half-life", "setting": "[3]", "value": 3.13, "unit": "min"},
      {"measurement": "IC50", "setting": "[4]", "value": 50.2, "unit": "nM"},
      {"measurement": "half-life", "setting": "[5]", "value": 5.99, "unit": "h"},
      {"measurement": "IC50", "setting": "[6]", "value": "> 40000", "unit": "nM"},
      {"measurement": "Cmax", "setting": "[7]", "value": 11.4, "unit": "ng/mL"},
      {"measurement": "inhibition", "setting": "[8]", "value": 93.9, "unit": "%"},
      {"measurement": "half-life", "setting": "[9]", "value": 1.74, "unit": "h"},
      {"measurement": "AUC at 24 h", "setting": "[10]", "value": 337, "unit": "ng·h/mL"},
      {"measurement": "half-life", "setting": "[11]", "value": 1.9, "unit": "h"},
      {"measurement": "half-life", "setting": "[12]", "value": 1.36, "unit": "h"},
      {"measurement": "inhibition", "setting": "[13]", "value": 77.3, "unit": "%"},
      {"measurement": "bioavailability", "setting": "[14]", "value": 0.64, "unit": "%"},
      {"measurement": "half-life", "setting": "[15]", "value": 5.56, "unit": "min"},
      {"measurement": "half-life", "setting": "[16]", "value": 4.22, "unit": "min"},
      {"measurement": "inhibition", "setting": "[17]", "value": 97.3, "unit": "%"},
      {"measurement": "inhibition at 40 µM", "setting": "hERG (KCNH2)", "value": 43.3, "unit": "%"},
      {"measurement": "half-life", "setting": "[18]", "value": 1.5, "unit": "h"}
    ]},
    {"smiles": "CC(C)(O)c1coc(S(=O)(=O)NC(=O)Nc2c3c(cc4c2CCC4)CCC3)c1", "values": [
      {"measurement": "inhibition", "setting": "[19]", "value": 80.5, "unit": "%"},
      {"measurement": "Activity", "setting": "Mus musculus", "value": "Active"}
    ]},
    {"smiles": "CS(=O)(=O)/C=C/C#N", "values": [
      {"measurement": "IC50", "setting": "[20]", "value": 100, "unit": "nM"}
    ]},
    {"smiles": "CC(C)n1ccc(S(=O)(=O)NC(=O)Nc2c3c(cc4c2CCC4)CCC3)n1", "note": "[INZOMELID]", "values": [
      {"measurement": "IC50", "setting": "[4]", "value": 14, "unit": "nM"},
      {"measurement": "inhibition", "setting": "[19]", "value": 42.7, "unit": "%"}
    ]},
    {"smiles": "C=C1C(=O)[C@]23[C@H](O)[C@H]1CC[C@H]2[C@]12C=CCC(C)(C)[C@H]1[C@H](O)[C@@]3(OCCC(=O)N1CCOCC1)OC2", "values": [
      {"measurement": "IC50", "setting": "[4]", "value": 72.2, "unit": "nM"},
      {"measurement": "inhibition", "setting": "[8]", "value": 83.9, "unit": "%"},
      {"measurement": "selectivity ratio", "setting": "[21]", "value": 30.2},
      {"measurement": "inhibition", "setting": "[13]", "value": 62.7, "unit": "%"},
      {"measurement": "inhibition", "setting": "[17]", "value": 95.1, "unit": "%"}
    ]}
  ]
}
